Assays:
Format in all cases: in vivo
corn (Zea mays) [1] = assay: Test G Pre-Emergence Protocol; conditions: Zea mays, pre-emergence, 312 h, evaluated after 13 days
How it was run: (§1)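 One day after sowing, pots are treated with a spray of test compound formulated in acetone/water 50:50 plus 0.5% Tween 20, giving 15.625, 62.5 or 250 g/ha. Evaluation on a 0–100 damage scale follows 13 days of glasshouse growth.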

[2] = test system: giant foxtail (Setaria faberi); assay: Test G Pre-Emergence Protocol; conditions: Setaria faberi, pre-emergence, 312 h, evaluated after 13 days
How it was run: as §1

[3] = test system: redroot pigweed (Amaranthus retroflexus); assay: Test G Pre-Emergence Protocol; conditions: Amaranthus retroflexus, pre-emergence, 312 h, evaluated after 13 days
How it was run: as §1

[4] = test system: barnyardgrass (Echinochloa crus-galli); assay: Test G Pre-Emergence Protocol; conditions: Echinochloa crus-galli, pre-emergence, 312 h, evaluated after 13 days
How it was run: as §1

[5] = test system: ivy-leaved morning glory (Ipomoea hederacea); assay: Test G Pre-Emergence Protocol; conditions: Ipomoea, pre-emergence, 312 h, evaluated after 13 days
How it was run: as §1

[6] = test system: velvetleaf (Abutilon theophrasti); assay: Test G Pre-Emergence Protocol; conditions: Abutilon theophrasti, pre-emergence, 312 h, evaluated after 13 days
How it was run: as §1

corn (Zea mays) [7] = assay: Test G Post-Emergence Protocol; conditions: Zea mays, post-emergence, 312 h, read-out: Corn damage rating
How it was run: (§2)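 Sow in soil; grow 8 d (24/16 °C, 14 h light, 65% humidity); spray 15.625/62.5/250 g/ha in acetone:water 50:50 + 0.5% Tween 20; grow on, water twice daily; score damage 0–100 at 13 d.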

[8] = test system: giant foxtail (Setaria faberi); assay: Test G Post-Emergence Protocol; conditions: Setaria faberi, post-emergence, 312 h, read-out: Foxtail, Giant damage rating
How it was run: as §2

[9] = test system: redroot pigweed (Amaranthus retroflexus); assay: Test G Post-Emergence Protocol; conditions: Amaranthus retroflexus, post-emergence, 312 h, read-out: Pigweed, Redroot damage rating
How it was run: as §2

[10] = test system: barnyardgrass (Echinochloa crus-galli); assay: Test G Post-Emergence Protocol; conditions: Echinochloa crus-galli, post-emergence, 312 h, read-out: Barnyardgrass damage rating
How it was run: as §2

[11] = test system: ivy-leaved morning glory (Ipomoea hederacea); assay: Test G Post-Emergence Protocol; conditions: Ipomoea, post-emergence, 312 h, read-out: Morningglory, Ivy-leaved damage rating
How it was run: as §2

[12] = test system: velvetleaf (Abutilon theophrasti); assay: Test G Post-Emergence Protocol; conditions: Abutilon theophrasti, post-emergence, 312 h, read-out: Velvetleaf damage rating
How it was run: as §2

[13] = 15.625 g ai/ha, evaluated after 13 days (100=total damage to plant; 0=no damage to plant)
[14] = 62.5 g ai/ha, evaluated after 13 days, 100=total damage to plant, 0=no damage to plant
[15] = 250 g ai/ha, evaluated after 13 days, 100=total damage to plant, 0=no damage to plant

Compound: Cc1c(F)cccc1NC(=O)[C@@H]1C(=O)N(C)C[C@H]1c1cccc(C(C)(C)O)c1 (racemic) [Compound 1819]
- plant injury at 15.625 g/ha (corn (Zea mays) [1]; 15.625 g ai/ha, read-out: Corn damage rating (100=total damage to plant; 0=no damage to plant)): 0%
- plant injury at 62.5 g/ha (corn (Zea mays) [1]; 62.5 g ai/ha, 100=total damage to plant, 0=no damage to plant, read-out: Corn damage rating): 0%
- plant injury at 250 g/ha (corn (Zea mays) [1]; 250 g ai/ha, read-out: Corn damage rating (100=total damage to plant; 0=no damage to plant)): 60%
- pest or weed control at 15.625 g/ha ([2]; 15.625 g ai/ha, read-out: Foxtail, Giant damage rating (100=total damage to plant; 0=no damage to plant)): 20%
- pest or weed control at 62.5 g/ha ([2]; 62.5 g ai/ha, 100=total damage to plant, 0=no damage to plant, read-out: Foxtail, Giant damage rating): 80%
- pest or weed control at 250 g/ha ([2]; 250 g ai/ha, read-out: Foxtail, Giant damage rating (100=total damage to plant; 0=no damage to plant)): 90%
- pest or weed control at 15.625 g/ha ([3]; 15.625 g ai/ha, read-out: Pigweed, Redroot damage rating (100=total damage to plant; 0=no damage to plant)): 0%
- pest or weed control at 62.5 g/ha ([3]; 62.5 g ai/ha, 100=total damage to plant, 0=no damage to plant, read-out: Pigweed, Redroot damage rating): 0%
- pest or weed control at 250 g/ha ([3]; 250 g ai/ha, read-out: Pigweed, Redroot damage rating (100=total damage to plant; 0=no damage to plant)): 20%
- pest or weed control at 15.625 g/ha ([4]; 15.625 g ai/ha, read-out: Barnyardgrass damage rating (100=total damage to plant; 0=no damage to plant)): 0%
- pest or weed control at 62.5 g/ha ([4]; 62.5 g ai/ha, 100=total damage to plant, 0=no damage to plant, read-out: Barnyardgrass damage rating): 60%
- pest or weed control at 250 g/ha ([4]; 250 g ai/ha, read-out: Barnyardgrass damage rating (100=total damage to plant; 0=no damage to plant)): 90%
- pest or weed control at 15.625 g/ha ([5]; 15.625 g ai/ha, read-out: Morningglory, Ivy-leaved damage rating (100=total damage to plant; 0=no damage to plant)): 0%
- pest or weed control at 62.5 g/ha ([5]; 62.5 g ai/ha, 100=total damage to plant, 0=no damage to plant, read-out: Morningglory, Ivy-leaved damage rating): 0%
- pest or weed control at 250 g/ha ([5]; 250 g ai/ha, read-out: Morningglory, Ivy-leaved damage rating (100=total damage to plant; 0=no damage to plant)): 0%
- pest or weed control at 15.625 g/ha ([6]; 15.625 g ai/ha, read-out: Velvetleaf damage rating (100=total damage to plant; 0=no damage to plant)): 0%
- pest or weed control at 62.5 g/ha ([6]; 62.5 g ai/ha, 100=total damage to plant, 0=no damage to plant, read-out: Velvetleaf damage rating): 0%
- pest or weed control at 250 g/ha ([6]; 250 g ai/ha, read-out: Velvetleaf damage rating (100=total damage to plant; 0=no damage to plant)): 10%
- plant injury at 15.625 g/ha (corn (Zea mays) [7]; [13]): 0%
- plant injury at 62.5 g/ha (corn (Zea mays) [7]; [14]): 0%
- plant injury at 250 g/ha (corn (Zea mays) [7]; [15]): 20%
- pest or weed control at 15.625 g/ha [8, 13]: 0%
- pest or weed control at 62.5 g/ha [8, 14]: 40%
- pest or weed control at 250 g/ha [8, 15]: 80%
- pest or weed control at 15.625 g/ha [9, 13]: 0%
- pest or weed control at 62.5 g/ha [9, 14]: 0%
- pest or weed control at 250 g/ha [9, 15]: 10%
- pest or weed control at 15.625 g/ha [10, 13]: 0%
- pest or weed control at 62.5 g/ha [10, 14]: 20%
- pest or weed control at 250 g/ha [10, 15]: 80%
- pest or weed control at 15.625 g/ha [11, 13]: 0%
- pest or weed control at 62.5 g/ha [11, 14]: 0%
- pest or weed control at 250 g/ha [11, 15]: 50%
- pest or weed control at 15.625 g/ha [12, 13]: 0%
- pest or weed control at 62.5 g/ha [12, 14]: 0%
- pest or weed control at 250 g/ha [12, 15]: 0%
